Results from patent US20030203908A1, “Dihydrofolate reductase inhibitors” (priority 2000, published 2003).
Structures can show the parent of a compound that is named as a salt. Where two headings read alike, the source gives them in different places.

Columns and labels:
[1] = target: T1, A16V.S108T mutant (mut) of DHFR from Plasmodium falciparum (Plasmodium falciparum, UniProt A7UD81, A16V/S108T); test: biochemical
T1 construct: The Dihydrofolate Reductase Domain of Plasmodium falciparum Thymidylate Synthase-Dihydrofolate Reductase; made in house
T1 sequence (A7UD81 1-231 A16V/S108T): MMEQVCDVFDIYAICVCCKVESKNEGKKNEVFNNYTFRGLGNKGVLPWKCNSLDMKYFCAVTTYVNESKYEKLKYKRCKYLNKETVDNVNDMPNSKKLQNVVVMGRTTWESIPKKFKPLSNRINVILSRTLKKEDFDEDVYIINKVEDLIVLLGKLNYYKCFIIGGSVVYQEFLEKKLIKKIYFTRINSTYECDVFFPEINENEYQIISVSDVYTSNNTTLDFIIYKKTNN
Protocol: (§1) For determination of the Ki values of a number of synthesized analogues, the assay reactions were initiated with affinity-purified enzyme (^˜0.005-0.01 U ml^−1), and the initial velocities in the presence of varying concentrations of inhibitors were analysed by non-linear least square fit using Kaleidagraph™ software.

[2] = tested on: A16V.S108T mutant (mut) of DHFR from Plasmodium falciparum; test: biochemical; conditions: resistance factor
Protocol: as §1

[3] = target: T2, wild-type (wt) DHFR from Plasmodium falciparum (Plasmodium falciparum, UniProt P13922, N108S/R59C); test: Inhibition of wild-type pfDHFR (spectrophotometric, Ki); assay type: biochemical;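 also: Affinity-purified enzyme, initial reaction rates measured across a range of inhibitor concentrations, Ki obtained by nonlinear least-squares fitting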
T2 construct: The Dihydrofolate Reductase Domain of Plasmodium falciparum Thymidylate Synthase-Dihydrofolate Reductase; made in house
T2 sequence (P13922 10-228 R59C/N108S): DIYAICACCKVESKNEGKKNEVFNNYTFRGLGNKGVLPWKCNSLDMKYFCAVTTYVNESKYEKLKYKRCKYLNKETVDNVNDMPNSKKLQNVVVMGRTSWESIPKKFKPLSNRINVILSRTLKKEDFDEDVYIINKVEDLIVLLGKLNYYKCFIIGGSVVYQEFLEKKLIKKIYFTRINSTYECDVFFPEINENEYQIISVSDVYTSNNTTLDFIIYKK
Protocol: as §1

human DHFR [4] = target: T3, human DHFR (Homo sapiens, UniProt P00374); test: Inhibition of human DHFR (I50-derived Ki); assay type: biochemical; conditions: human DHFR;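 also: recombinant human DHFR expressed in E. coli and purified by methotrexate affinity chromatography, enzyme activity followed spectrophotometrically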
T3 construct: made in house; host or cells: E. coli M15
T3 sequence (P00374 1-187): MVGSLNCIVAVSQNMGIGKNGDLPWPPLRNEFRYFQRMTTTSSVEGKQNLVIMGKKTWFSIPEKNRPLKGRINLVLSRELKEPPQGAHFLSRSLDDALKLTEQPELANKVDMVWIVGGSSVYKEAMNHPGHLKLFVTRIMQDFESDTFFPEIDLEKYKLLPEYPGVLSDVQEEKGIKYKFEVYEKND
Protocol: (§2) Folic acid and NADPH, were purchased from Sigma. Dihydrofolate was prepared from folic acid dithionate reduction. Methotrexate (MTX) was from Lederle Laboratories. MTX sepharose CL-6B was prepared according to the protocol described by Dann. et al. IPTG came from Boehringer Manheim. The expression system used for recombinant human DHFR production, which includes the plasmid PB-E1/RB SII, SphI-HDHFR expressed in E. coli M15, was supplied by Santi, D. V (Department of Biochemistry and Biophysics and Department of Pharmaceutical Chemistry, University of California). Recombinant T. Cruzi DHFR-TS was produced using the system pET 11c with the insertion of the complete ORF of the gene tc-dhfrts. The resulting plasmid was called pET DT.
(§3) Human and T.cruzi DHFR were produced using inducible expression systems. For human DHFR, fresh overnight cultures of E. coli M15, transformed with the plasmid, pB-E1/RB SII, SphI-HDHFR, were grown in LB and 0.1 mg/ml ampicillin medium at 28° C. For T.cruzi DHFR-TS, cultures of E. coli, BL21 (DE3) transformed with the plasmid pETDT system were grown at 37° C. The same purification protocol was used for both systems. When OD600 was at 0.8, cells pellets were collected by centrifugation, suspended in 50 ml of LB medium, containing 0.1 mg/ml of ampicillin. 10 ml of this preinocule was added to 2 litres of LB medium. Cultures were shaken at 28° C. or 37° C. (for human and T. cruzi DHFR respectively) and induction with IPTG ImM was performed when OD600 reached 0.8. After IPTG induction, cells were grown overnight in a shaker at 28° C. or 5 hours at 28° C. or 37° C. (for human and T. cruzi DHFR respectively) and then harvested by centrifugation.
(§4) Cell pellets were suspended in sonication buffer (2× TES DHFR:TES 100 mM, 2-mercaptoethanol 150 mM, EDTA 2 mM pH=7) containing protease inhibitors.
(§5) Crude extract was circulated through the MTX-Sepharose column at 4° C. at a flow rate of 0.2 ml/min until the protein was bound to the resin. The column was washed with an excess of buffer B (KH2PO410 mM pH 7, KC1 1M). Protein was eluted at 0.2 min/ml with an elution buffer (100 mM TES, 10 mM DTT, 2 mM EDTA, DHF 8.5 mM), the elution profile was collected in 1 ml fractions using a Pharmacia LKB Frac 200 collector. Finally, the protein was desalted using molecular size exclusion chromatography in a Pharmacia G-25 column. Fractions containing DHFR activity were pooled and concentrated by ultrafiltration using centripreps Amicon.
(§6) The purity of the protein preparation was assessed by detection of a single band of the correct molecular weight stained with coomasie blue following a 12% SDS-PAGE. Protein concentration was determined by the method of Bradford using a BSA as a standard. DHFR activity was measured spectrophotometrically by monitoring the decrease in absorbance at 340 mm. […] One unit of enzyme, is defined as the amount of enzyme which produces 1 nmol of product per min using ε of 12300M^−1 at 340 nm.
(§7) Inhibition of dihydrofolate reductases by 1,2-dihydro-1,3,5 triazines was analysed with T. cruzi and human DHFR.
(§8) DHFR assays contained 30 mM dihydrofolate, 0.1 mM NADPH, 50 mM TES buffer pH 7, 75 mM 2-mercaptoethanol and specified amounts of inhibitors. The reaction was initiated by addition of 2.8 or 2.3 units of T. cruzi and human, respectively, and monitored at 340 nm.
(§9) Selective inhibition of dihydrofolate reductase by 1,2-dihydro-1,3,5-triazines was analysed with T. cruzi and human DHFR. DHFR assays contained 30 μM dihydrofolate, 0.1 mM NADPH, 50 mM TES buffer pH 7, 75 mM β-mercaptoethanol and specified amounts of inhibitors. The reaction was initiated by addition of 2.8 or 2.3 units of T. cruzi and human enzyme, respectively, and monitored at 340 nm. […] KiI 50=[I]0.5/((1+[S])/Km)

[5] = tested on: wild-type (TM4/8.2) strain of P. falciparum; test: microbe, parasite or virus in culture; assay type: cell-based, Plasmodium falciparum; conditions: Plasmodium falciparum; wild-type strain TM4/8.2
Protocol: Mol. Biochem. Parasitol. […] Science, 1976, 193, 673-675]. In vitro antimalarial activity was determined by using [^3H]-hypoxanthine incorporation method [Desjardins, R. E.; Canfield, C. J.; Haynes, J. D.; Chulay, J. D. Quantitative assessment of antimalarial activity in vitro by a semiautomated microdilution technique. Antimicrob Agents Chemother. 1979, 16, 710-718]. The drugs were initially dissolved in DMSO and diluted with the culture media. Aliquots (25 μl) of drug solution of different concentrations was placed in 96-well plate together with 200 μl of 1.5% cell suspension of parasitized erythrocytes containing 1-2% parasitemia. Final concentration of DMSO was 0.1% where there was no effect on the parasite growth. The mixtures were incubated in a 3% CO2 incubator at 37° C. After 24 h of incubation, 25 μl (0.25 μCi) of [^3H]-hypoxanthine were added to each well. The mixtures were further incubated under the same condition for 18-24 h. DNA of parasites was harvested onto glass filter paper (Unifilter, Packard, USA). The filters were dried and liquid scintillation fluid was added for radioactivity measurement in a 6-probe liquid scintillation-counter (Packard, USA).

[6] = target: T4, DHFR-TS from Trypanosoma cruzi (Trypanosoma cruzi, UniProt Q27793); test: Inhibition of T. cruzi DHFR-TS (I50-derived Ki);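 as to all read-outs here: enzymes were recombinant T. cruzi DHFR-TS and human DHFR, both expressed in E. coli and purified on a methotrexate affinity column, with dihydrofolate and NADPH as substrates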; assay type: biochemical; conditions: for Selectivity: human Ki / T. cruzi Ki
T4 construct: pET 11c with the insertion of the complete ORF of the gene tc-dhfrts; made in house; host or cells: E. coli BL21 (DE3)
T4 sequence (Q27793 whole entry): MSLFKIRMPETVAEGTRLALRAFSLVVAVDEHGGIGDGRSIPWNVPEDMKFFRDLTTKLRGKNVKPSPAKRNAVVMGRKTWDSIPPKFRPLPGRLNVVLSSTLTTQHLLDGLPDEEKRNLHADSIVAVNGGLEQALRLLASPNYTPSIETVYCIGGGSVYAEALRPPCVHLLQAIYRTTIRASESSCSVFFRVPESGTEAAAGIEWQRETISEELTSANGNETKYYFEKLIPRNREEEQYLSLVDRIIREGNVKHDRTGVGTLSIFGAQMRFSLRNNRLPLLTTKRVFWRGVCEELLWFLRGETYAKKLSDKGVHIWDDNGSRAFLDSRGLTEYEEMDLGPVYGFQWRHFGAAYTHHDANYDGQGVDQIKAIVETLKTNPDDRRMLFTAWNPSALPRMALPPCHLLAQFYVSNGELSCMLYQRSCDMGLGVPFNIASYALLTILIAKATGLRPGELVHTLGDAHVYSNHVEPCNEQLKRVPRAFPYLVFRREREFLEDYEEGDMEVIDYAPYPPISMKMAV
Protocol: DHFR activity was measured spectrophotometrically by monitoring the decrease in absorbance at 340 mm.
as §7, §8
Selective inhibition of dihydrofolate reductase by 1,2-dihydro-1,3,5-triazines was analysed with T. cruzi and human DHFR. DHFR assays contained 30 μM dihydrofolate, 0.1 mM NADPH, 50 mM TES buffer pH 7, 75 mM β-mercaptoethanol and specified amounts of inhibitors. The reaction was initiated by addition of 2.8 or 2.3 units of T. cruzi and human enzyme, respectively, and monitored at 340 nm.
KiI 50=[I]0.5/((1+[S])/Km)

human DHFR [7] = test: Inhibition of human DHFR (I50-derived Ki); assay type: biochemical;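 also: recombinant human DHFR expressed in E. coli and purified by methotrexate affinity chromatography, enzyme activity followed spectrophotometrically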
Protocol: as §2, §3, §4, §5, §6, §7, §8, §9

Row | Compound | Ki [1] | Ki(mut)/Ki(wt) [2] | Ki ([3]; Ki(wt) nM) | Ki (human DHFR [4]; Human Ki (I50)(nM)) | IC50 [5] | Ki [6] | Selectivity [6] | Ki (human DHFR [4]; read-out: Human Ki (I50)) | Ki (human)/Ki (T. cruzi) (human DHFR [7]) | Ki ([3]; read-out: Ki(wt)) | Ki ([6]; T. cruzi DHFR-TS, read-out: T. cruzi Ki (I50))
1 | NC1=NC(c2cccc(Oc3ccccc3)c2)N(c2cccc(-c3ccccc3)c2)C(N)=N1 (stereo not drawn) [1-m-biphenyl-2-m-phenoxyphenyl-4,6-diamino-1,2-dihydro-1,3,5-triazine] | 0.0048 ± 0.0009 µM | 2.2 | 2 nM |  |  |  |  |  |  |  | 
2 | COc1ccc(C2N=C(N)N=C(N)N2c2ccc(Cl)cc2)cc1OC (stereo not drawn) [(Ia) R2=3,4-dimethoxyphenyl] | 0.124 ± 0.005 µM | 3.8 | 32.7 ± 2 nM | 25700 nM | 2.27 µM | 0.386 µM | 67 |  |  |  | 
3 | COc1cc(OC)cc(C2N=C(N)N=C(N)N2c2ccc(Cl)cc2)c1 (stereo not drawn) [(Ia) R2=3,5-dimethoxyphenyl] | 0.1 ± 0.007 µM | 2.6 | 38.3 ± 8 nM | 25800 nM | 3.25 µM | 0.2 µM | 129 |  |  |  | 
4 | NC1=NC(c2cccc(Oc3ccc(Cl)cc3)c2)N(c2ccc(Cl)cc2)C(N)=N1 (stereo not drawn) [(Ia) R2=3-(4-chlorophenoxy)phenyl] | 0.0075 µM | 5.3 | 1.4 ± 0.3 nM |  | 2.85 µM |  |  |  |  |  | 
5 | COc1cccc(C2N=C(N)N=C(N)N2c2ccc(Cl)cc2)c1 (stereo not drawn) [(Ia) R2=m-methoxyphenyl] | 0.0628 ± 0.0024 µM | 6.0 | 10.4 ± 1.4 nM |  | 0.577 µM |  |  |  |  |  | 
6 | N#Cc1ccc(C2N=C(N)N=C(N)N2c2ccc(Cl)cc2)cc1 (stereo not drawn) [(Ia) R2=p-cyanophenyl] | 0.205 ± 0.022 µM |  | 11.3 ± 1.4 nM |  | 0.804 µM | 0.65 µM |  |  |  |  | 
7 | NC1=NC(c2ccc(O)cc2)N(c2ccc(Cl)cc2)C(N)=N1 (stereo not drawn) [(Ia) R2=p-hydroxyphenyl] | 0.098 ± 0.01 µM | 8.6 | 11.3 ± 1.7 nM |  |  |  |  |  |  |  | 
8 | NC1=NC(c2ccccc2)N(c2ccc(Cl)cc2)C(N)=N1 (stereo not drawn) [(Ia) R2=phenyl, 1-(4′-Chlorophenyl)-2-phenyl-4,6-diamino-1,2-dihydro-1,3,5-triazine hydrochloride] | 0.0493 ± 0.0033 µM |  |  |  | 0.027 µM | 0.042 µM |  | 3870 nM |  |  | 
9 | COc1cc(C2N=C(N)N=C(N)N2c2cccc(Cl)c2)cc(OC)c1OC (stereo not drawn) [(Ib) R2=3,4,5-trimethoxyphenyl] | 1.01 ± 0.027 µM | 1.0 | 960 ± 79 nM |  | > 50 µM |  |  |  |  |  | 
10 | COc1ccc(C2N=C(N)N=C(N)N2c2cccc(Cl)c2)cc1OC (stereo not drawn) [(Ib) R2=3,4-dimethoxyphenyl] | 0.164 ± 0.006 µM | 6.0 | 27.2 ± 2 nM |  | 6.82 µM |  |  |  |  |  | 
11 | COc1cc(OC)cc(C2N=C(N)N=C(N)N2c2cccc(Cl)c2)c1 (stereo not drawn) [(Ib) R2=3,5-dimethoxyphenyl] | 0.0309 ± 0.003 µM | 0.4 | 79.4 ± 7 nM |  | > 50 µM |  |  |  |  |  | 
12 | NC1=NC(c2cccc(Oc3cc(Cl)cc(Cl)c3)c2)N(c2cccc(Cl)c2)C(N)=N1 (stereo not drawn) [(Ib) R2=3-(3,5-dichlorophenoxy)phenyl] | 0.0047 ± 0.0004 µM | 2.6 | 1.8 ± 0.6 nM |  | 5.47 µM |  |  |  |  |  | 
13 | NC1=NC(c2cccc(O)c2)N(c2cccc(Cl)c2)C(N)=N1 (stereo not drawn) [(Ib) R2=3-hydroxyphenyl] | 0.0197 ± 0.0024 µM | 0.7 | 27.9 ± 4.5 nM |  | 0.551 µM |  |  |  |  |  | 
14 | COc1cccc(C2N=C(N)N=C(N)N2c2cccc(Cl)c2)c1 (stereo not drawn) [(Ib) R2=3-methoxyphenyl] | 0.0591 ± 0.0063 µM | 10.9 | 5.4 ± 0.2 nM | 1270 nM | 4.37 µM | 0.24 µM | 5.3 |  |  |  | 
15 | NC1=NC(c2ccc(OCc3cc(F)cc(F)c3)cc2)N(c2cccc(Cl)c2)C(N)=N1 (stereo not drawn) [(Ib) R2=4-(3,5-difluorobenzyloxy)phenyl] | 0.0074 ± 0.0007 µM | 1.7 | 4.4 ± 0.4 nM |  | 3.78 µM |  |  |  |  |  | 
16 | CCCOc1ccc(C2N=C(N)N=C(N)N2c2cccc(Cl)c2)cc1 (stereo not drawn) [(Ib) R2=4-(n-propyloxy)phenyl] | 0.0093 ± 0.0006 µM |  |  |  | 0.248 µM |  |  |  |  |  | 
17 | NC1=NC(c2ccc(Br)cc2)N(c2cccc(Cl)c2)C(N)=N1 (stereo not drawn) [(Ib) R2=4-bromophenyl] | 0.0219 ± 0.0025 µM | 0.8 | 27 ± 4.5 nM |  | 9.1 µM |  |  |  |  |  | 
18 | COc1ccc(C2N=C(N)N=C(N)N2c2cccc(Cl)c2)cc1 (stereo not drawn) [(Ib) R2=4-methoxyphenyl] | 0.0125 ± 0.0009 µM | 0.6 | 21.8 ± 1 nM |  | 2.56 µM |  |  |  |  |  | 
19 | Cl.NC1=NC(c2ccccc2)N(c2cccc(Cl)c2)C(N)=N1 (stereo not drawn) [(Ib) R2=phenyl, 1-(3′-Chlorophenyl)-2-phenyl-4,6-diamino-1,2-dihydro-1,3,5-triazine hydrochloride] | 0.01 ± 0.007 µM | 0.9 | 11.7 ± 2.5 nM |  | 0.565 µM |  |  |  |  |  | 
20 | COc1ccc(Oc2cccc(C3N=C(N)N=C(N)N3c3ccc(Cl)c(Cl)c3)c2)cc1 (stereo not drawn) [(Ic) R2=3-(4-methoxyphenoxy)phenyl] | 0.0074 ± 0.0008 µM | 3.9 | 1.9 ± 0.3 nM |  | 2.93 µM |  |  |  |  |  | 
21 | NC1=NC(c2cccc(Oc3ccccc3)c2)N(c2ccc(Cl)c(Cl)c2)C(N)=N1 (stereo not drawn) [(Ic) R2=3-phenoxyphenyl] | 0.0052 ± 0.0006 µM | 2.7 | 1.9 ± 0.3 nM |  | 0.33 µM |  |  |  |  |  | 
22 | NC1=NCN(c2ccc(Cl)c(Cl)c2)C(N)=N1 [(Ic) R2=H] | 0.0436 ± 0.0058 µM | 8.2 | 5.3 ± 0.7 nM |  | 0.123 µM | 0.036 µM | 1.9 |  | 0.19 |  | 
23 | NC1=NC(c2ccccc2)N(c2ccc(Cl)c(Cl)c2)C(N)=N1 (stereo not drawn) [(Ic) R2=Ph, 1-(3′,4′-Dichlorophenyl)-2-phenyl-4,6-diamino-1,2-dihydro-1,3,5-triazine hydrochloride] |  |  |  |  | 0.026 µM |  |  |  |  |  | 
24 | NC1=NC(c2cccc(OCc3ccccc3)c2)N(c2cccc(OCc3ccccc3)c2)C(N)=N1 (stereo not drawn) [R2=3-BnOC6H4, X=H, Y=BnO, 1-m-benzyloxyphenyl-2-m-benzyloxyphenyl-4,6-diamino-1,2-dihydro-1,3,5-triazine] | 0.0072 ± 0.001 µM | 1.7 | 4.3 ± 0.2 nM | 2130 nM |  | 0.128 µM | 16.6 |  |  |  | 
25 | COc1ccc(C2N=C(N)N=C(N)N2c2ccc(F)cc2)cc1 (stereo not drawn) [R2=4-MeOC6H4, X=F, Y=H] |  |  |  | 26900 nM |  | 0.061 µM | 441 |  | 441 |  | 
26 | NC1=NCN(c2ccc(Br)cc2)C(N)=N1 [R2=H, X=Br, Y=H] |  |  |  | 480 nM |  | 0.1 µM | 4.8 |  |  |  | 
27 | CC1(C)N=C(N)N=C(N)N1c1ccc(Cl)cc1 [cycloguanil, Cycloguanil, reference compound] | 1.31 µM |  |  |  | 0.04 µM |  |  |  |  | 1.5 nM | 0.37 µM
